Assay results as given in patent publication US20030166548A1, “PLAP polypeptides and methods of producing and using same” (Board of Regents, The University of Texas System, priority 1997, published 2003).
“And” between values parts separate entries of the source, which are not always exact repeats. Equal values may be shown once.

How the values were obtained:
[1] = biological target: T1, PLA2 from bee venom (Apis mellifera, UniProt P00630); type: biochemical
[2] = biological target: T2, PLA2 from bovine pancreas (Bos taurus, UniProt P00593); test: PLA2 assay using unsonicated vesicles; type: biochemical; settings: Bovine P., peptide 1 μg
Experimental: (§1) In general, assays involve incubation of purified PLA2 or a mixture believed to contain PLA2, such as synovial fluid, with a PLA2 substrate containing radio-labeled arachidonic acid in the presence of the inhibitor of interest. Suitable substrates for PLA2 reactions include any glycerol-3-phosphate with arachidonic acid substituted at the sn-2 position. The preferred substrates of the assays of this invention include [^14C]-arachidonic acid-substituted phosphatidylcholine or [^14C]-arachidonic acid-substituted phosphatidylethanolamine. After the reaction is stopped by addition of chloroform and methanol, TLC chromatography is used to separate the released [^14C] arachidonic acid from [^14C] arachidonic acid-labeled phosphatidylcholine/ethanolamine, which may be quantified by scintillation counting.
(§2) Radiolabeled phosphatidylcholine or phosphatidylethanolamine containing [^14C]-arachidonic acid in the sn-2 position of the phospholipid was dried under nitrogen and the lipid vesicles were prepared in 0.05% Triton X-100. The reaction mixture contained 10 μl of phospholipid substrate, 10 μl of 5× assay buffer (500 mM Tris[hydroxymethyl]aminomethane […]HCl (Tris HCl), pH 8.0; 500 mM NaCl; 5.0% fatty acid-free bovine serum albumin (BSA); and 5 mM CaCl2), 10 μl PLA2 enzyme preparation, and sufficient H2O to adjust the total volume to 50 μl The reaction mixture was incubated for 30 minutes at 37° C. in a waterbath and stopped by the addition of 50 μl of chloroform and methanol (1:3), containing 200 μg/ml of unlabeled arachidonic acid and then the mixture was vortexed Lipid was extracted by adding 50 μl of chloroform and 50 μl of 4M KCl, after which, the mixture was vortexed and centrifuged in a microfuge at 14,000 rpm for 10 minutes A 25 μl aliquot of the organic phase was spotted onto glass silica gel plates (Whatman LK6DF) and placed in a thin layer chromatography chamber with a solvent system containing petroleum ether, diethyl ether, and acetic acid (5:25:1) for 30 minutes. The lipid spots were made visible by placing the silica gel plates in a chamber containing iodine vapor. The silica gel region corresponding to arachidonic acid was scraped and transferred to scintillation vials containing 10 ml of scintillation cocktail, which is commercially available and designed to measure the amount of radioactivity in aqueous samples when used with a liquid scintillation counter. The amount of radionuclide corresponding to [^14C]-arachidonic acid in each vial was determined in a Beckman liquid scintillation counter. Results of these assays are shown in Tables 1 and 2 listed after Example 3.

[3] = test system: PLA2 from snake venom; test: PLA2 assay using unsonicated vesicles; type: biochemical; settings: Snake V., peptide 1 μg
Experimental: as §1, §2

[4] = test system: PLA2 from synovial fluid from rheumatoid arthritis patients; test: PLA2 assay using unsonicated vesicles; type: biochemical, human; settings: Synovial F., peptide 1 μg
Experimental: as §1
Radiolabeled phosphatidylcholine or phosphatidylethanolamine containing [^14C]-arachidonic acid in the sn-2 position of the phospholipid was dried under nitrogen and the lipid vesicles were prepared in 0.05% Triton X-100. […] The silica gel region corresponding to arachidonic acid was scraped and transferred to scintillation vials containing 10 ml of scintillation cocktail, which is commercially available and designed to measure the amount of radioactivity in aqueous samples when used with a liquid scintillation counter. […]

[5] = biological target: T1, PLA2 from bee venom; test: biochemical; type: biochemical
[6] = biological target: T2, PLA2 from bovine pancreas; test: PLA2 assay using [3H]-oleic acid labeled E. coli; type: biochemical; settings: Bovine P., peptide 1 μg
Experimental: (§3) PLA2 activity may also be assayed using [^3H]-oleic acid labeled Escherichia coli, in a modification of the procedure previously described by [Elsbach and Weiss, 1991]. E. coli cells grown in the presence of [^3H]-oleic acid are incubated with PLA2 enzyme. The reaction is quenched either by addition of 1M HCl or by dilution in cold phosphate buffered saline (PBS). The amount of [^3H]-oleic acid released from the E. coli cells by PLA2 is measured using scintillation counting.
(§4) The procedure is a modification of that described by Elsbach and Weiss (1991). E. coli strain SJ198 was grown in 10 ml M9 minimal medium plus 50 μl glycerol, 100 μl vitamin mix, 40 μl methionine (25 mg/ml), 50 μl [^3H]-oleic acid (0.1 μCi/μl), and 100 μl casamino acids (100 mg/ml). After incubation at 37° C. overnight, the culture was centrifuged and washed three times in PBS, autoclaved for 15 minutes, washed again three times in PBS and stored at −70° C. The reaction mixture contained 10 μl of 5×assay of the PLA2 enzyme preparation, 10 μl of [^3H]-oleic acid-labeled E. coli cells, and enough H2O to adjust the total volume to 50 μl. The reaction mixture was incubated for 15 minutes at 37° C. in a waterbath. To stop the reaction, the tubes were transferred immediately to an ice bath and an equal volume of either 1 M HCl or 4 volumes cold PBS was added. After centrifugation in a microfuge at 4° C. for 10 minutes, an aliquot equal to 25% of the volume of the supernatant was used to measure the amount of [^3H]-labeled oleic acid released from the E. coli cells by PLA2 using liquid scintillation counting.

[7] = test system: PLA2 from snake venom; test: PLA2 assay using [3H]-oleic acid labeled E. coli; type: biochemical; settings: Snake V., peptide 1 μg
Experimental: as §3, §4

[8] = test system: PLA2 from synovial fluid from rheumatoid arthritis patients; test: PLA2 assay using [3H]-oleic acid labeled E. coli; type: biochemical, human; settings: Synovial F., peptide 1 μg
Experimental: as §3
as §4, with “After centrifugation in a microfuge at 4° C. for 10 minutes, an aliquot equal to 25% of the volume of the supernatant was used to measure the amount of [^3H]-labeled oleic acid released from the E. coli cells by PLA2 using liquid scintillation counting.” left out

[9] = biological target: T3, affinity-purified PLA2 enzyme isolated from synovial fluid of rheumatoid arthritis patients (Homo sapiens, UniProt P14555); test: PLA2 assay, unsonicated vesicles labeled with [14C]-phosphatidylcholine, affinity-purified enzyme; type: biochemical
T3 construct: from tissue
T3 sequence (P14555 21-144): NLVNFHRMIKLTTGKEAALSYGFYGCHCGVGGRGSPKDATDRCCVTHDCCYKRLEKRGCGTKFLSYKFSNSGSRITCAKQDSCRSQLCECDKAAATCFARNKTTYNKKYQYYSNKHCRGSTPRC
Experimental: as §2

[10] = biological target: T3, affinity-purified PLA2 enzyme isolated from synovial fluid of rheumatoid arthritis patients; test: PLA2 assay, [3H]-oleic acid-E. coli, affinity-purified enzyme; type: biochemical; settings: mean of three determinations
Experimental: as §4

[11] = test system: Human serum PLA2; test: PLA2 assay of human serum fractions eluted from MLT-Sepharose column, [3H]-oleic acid-labeled E. coli substrate; type: biochemical; settings: for PLA2 activity: Melittin 5 μM
Experimental: as §4
Isolation of PLA2 from human serum: 10 ml of heat-inactivated human serum Gemini Bio Product Inc. (Calabasas, Calif.) was diluted 1:10 with PBS and loaded onto Melittin-Sepharose as well as PLAP-Sepharose columns pre-equilibrated with PBS. Columns were washed with 500 ml of PBS overnight and eluted with 0.5M glycine/HCl buffer, pH 2.8 and 2 ml fractions were collected, neutralized to pH 7.2 with Tris-HCl buffer and analyzed for PLA2 activity using [^3H]labeled oleic acid—E. coli cells as substrate. Eluted fractions were concentrated and dialyzed in centricon 10 (Amicon, Inc., Beverly, Mass.) and the pass through was discarded. The retentate was again passed through centricon 30 and concentrated to about ⅕th of the volume. Both retentate and pass through were subjected to PLA2, assay with and without melittin.

[12] = test system: phospholipase D (PLD); test: Synthetic melittin added to dissociated membranes from U-937 cells; type: biochemical; settings: dissociated membranes from human monocyte cell line U-937
[13] = test system: synovial fluid PLA2; test: Interference of streptavidin-peroxidase binding to biotin-melittin by synovial fluid PLA2; parameters: species or system human; settings: plate coated with biotinylated synthetic melittin, FIG. 6B
[14] = biological target: human serum PLA2 (human) (UniProt P04054)
[15] = biological target: PLA2 of synovial fluid from rheumatoid arthritis patients (human (rheumatoid arthritis patients)) (UniProt P14555); test: cell-based or functional assay
[16] = biological target: human serum PLA2 (human) (UniProt P04054); test: cell-based or functional assay
[17] = biological target: T4, bee venom PLA2 (bee), P00630; test: cell-based or functional assay
T4 chain: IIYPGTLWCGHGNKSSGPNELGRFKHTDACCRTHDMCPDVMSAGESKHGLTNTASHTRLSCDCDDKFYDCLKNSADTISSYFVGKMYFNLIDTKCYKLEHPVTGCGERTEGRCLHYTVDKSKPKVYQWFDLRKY

[18] = A: [14C]-phosphatidylcholine vesicles
[19] = B: phosphatidylethanolamine vesicles
[20] = C: [3H]-oleic acid-labeled E. coli, stopped with cold PBS
[21] = D: [3H]-oleic acid-labeled E. coli, stopped with 1N HCl

T2 sequence (P00593 23-145): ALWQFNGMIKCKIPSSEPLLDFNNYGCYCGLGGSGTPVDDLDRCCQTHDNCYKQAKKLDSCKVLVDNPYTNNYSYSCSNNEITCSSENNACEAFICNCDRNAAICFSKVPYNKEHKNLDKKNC
human serum PLA2 (human), sequence (P04054 23-148 limits assumed): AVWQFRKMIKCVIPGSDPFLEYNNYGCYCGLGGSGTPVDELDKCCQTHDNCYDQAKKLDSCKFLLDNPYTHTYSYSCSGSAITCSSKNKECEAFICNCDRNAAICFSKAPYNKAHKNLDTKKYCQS

With `CC[C@H](C)[C@H](NC(=O)CN)C(=O)NCC(=O)N[C@@H](C)C(=O)N[C@H](C(=O)N[C@@H](CC(C)C)C(=O)N[C@@H](CCCCN)C(=O)N[C@H](C(=O)N[C@@H](CC(C)C)C(=O)N[C@H](C(=O)N[C@H](C(=O)NCC(=O)N[C@@H](CC(C)C)C(=O)N1CCC[C@H]1C(=O)N[C@@H](C)C(=O)N[C@@H](CC(C)C)C(=O)N[C@H](C(=O)N[C@@H](CO)C(=O)N[C@@H](Cc1c[nH]c2ccccc12)C(=O)N[C@H](C(=O)N[C@@H](CCCCN)C(=O)N[C@@H](CCCNC(=N)N)C(=O)N[C@@H](CCCCN)C(=O)N[C@@H](CCCNC(=N)N)C(=O)N[C@@H](CCC(N)=O)C(=O)N[C@@H](CCC(N)=O)C(N)=O)[C@@H](C)CC)[C@@H](C)CC)[C@@H](C)O)[C@@H](C)O)C(C)C)C(C)C` [Melittin] as the molecule, how does the “type of inhibition of bee venom PLA2” value [1] read?
Its value is “noncompetitive inhibitor”.

And the “Phospholipase A2 activity” value [2, 18]?
Its value is 3.6 ± 0.9 × 10^−5 μmoles/min/mg of protein.

And the “Phospholipase A2 activity” value [2, 19]?
Its value is 2.96 ± 0.0 × 10^−3 μmoles/min/mg of protein.

What about the “Phospholipase A2 activity” value [3, 18] of the same molecule?
Its value is 1.41 ± 0.84 μmoles/min/mg of protein.

What about the “Phospholipase A2 activity” value [3, 19] of the same molecule?
Its value is 0.05 ± 0.03 μmoles/min/mg of protein.

What about the “Phospholipase A2 activity” value [4, 18] of the same molecule?
The value was 2.9 ± 0.0 × 10^−4 μmole/min ml.

And the “Phospholipase A2 activity” value [4, 19]?
The value was 4.7 ± 0.0 × 10^−4 μmole/min ml.

And the EC50 [5]?
The EC50 was 20 nM.

What about the “Phospholipase A2 activity” value [5] of the same molecule?
Its value is 801 ± 55.0 μmoles/min/mg of protein and 1315.0 ± 48.2 μmoles/min/mg of protein.

What about the “amount of synthetic melittin required to inhibit maximal PLA2 activity” value [5] of the same molecule?
Its value is 30 mM.

And the “Phospholipase A2 activity” value [6, 20]?
The value was 0.06 ± 0.03 μmoles/min/mg of protein.

And the “Phospholipase A2 activity” value [6, 21]?
Its value is 1.51 ± 0.17 μmoles/min/mg of protein.

And the “Phospholipase A2 activity” value [7, 20]?
Its value is 61.5 ± 2.75 μmoles/min/mg of protein.

And the “Phospholipase A2 activity” value [7, 21]?
Its value is 59.13 ± 13.97 μmoles/min/mg of protein.

And the “Phospholipase A2 activity” value [8, 20]?
Its value is 5.5 ± 0.4 µmol/min/mL.

And the “Phospholipase A2 activity” value [8, 21]?
The value was 43.65 ± 3.19 µmol/min/mL.

And the “Inhibitory Potency” value ([9]; Table 2A, follows Table 2)?
Its value is 80%.

And the “Phospholipase A2 activity B(× 10^−3) [14C]-phosphatidylcholine” value ([9]; peptide 1.0 μM, mean of three determinations)?
Its value is 0.055 ± 0.010 × 10^−3 μ moles/min/ml.

What about the “order of inhibitory potency” value ([9]; rank order from Table 2) of the same molecule?
The value was “MLT>G25>G22>G141>G27>G23”.

What about the “Phospholipase A2 activity C [3H]-oleic acid-E. coli” value (from here on “Phospholipase A2 activity C”) ([10]; peptide 1.0 μM) of the same molecule?
Its value is 0.50 ± 0.12 μ moles/min/ml.

What about the “Phospholipase A2 activity C” value ([10]; peptide 5.0 μM) of the same molecule?
Its value is 0.12 ± 0.02 μ moles/min/ml.

What about the “Phospholipase A2 activity C” value ([10]; peptide 10 μM) of the same molecule?
Its value is 0.06 ± 0.03 μ moles/min/ml.

What about the PLA2 activity ([11]; Human serum PLA2 eluted from MLT-Sepharose column) of the same molecule?
Its PLA2 activity is 219 ± 16.3 nano mol/min/ml.

And the PLA2 activity ([11]; eluate Centricon 30 concentrated (5 times))?
Its PLA2 activity is 192 ± 5.44 nano mol/min/ml.

And the PLA2 activity ([11]; eluate Centricon 30 pass through)?
Its PLA2 activity is 172 ± 8.73 nano mol/min/ml.

And the “reduction in PLA2 activity in the presence of melittin” value ([11]; fractions after concentration by centricon 10 or 30)?
The value was 4 fold.

What about the “effect on phospholipase D (PLD)” value [12] of the same molecule?
The value was “stimulates PLD”.

What about the “effect on phospholipase D (PLD)” value ([12]; listed as synthetic melittin) of the same molecule?
The value was “resulted in the formation of phosphatidic acid and release of arachidosic acid”.

For “biotinylated synthetic melittin: biotinylated synthetic melittin used to coat microtiter plates”, which “interference of synovial fluid with streptavidin-peroxidase binding” value [13] is on record?
Its value is “dose-dependent interference”.

Which Purification [14] does the source give for synthetic melittin (peptide) here?
Its Purification is 1520 fold.

And the Inhibitory Potency [15]?
The Inhibitory Potency was 80%.

And the reduction in PLA2 activity in the presence of melittin [16]?
The reduction in PLA2 activity in the presence of melittin was 4 fold.

B1: synthetic melittin (peptide)
peptide: GIGAVLKVLTTGLPALISWIKRKRQQ
modifications: not checked
Which molar ratio of melittin to PLA2 at maximal inhibition (mol melittin per mol PLA2) [17] does the source give for B1 here?
Its molar ratio of melittin to PLA2 at maximal inhibition (mol melittin per mol PLA2) is 30.
